From paper PMC10221837, “Alanine Substitution to Determine the Effect of LR5 and YR6 Rice Peptide Structure on Antioxidant and Anti-Inflammatory Activity” (Nutrients, 2023)
Ends that are not written are not given here.

test system: RAW264.7 cells; assay: MTT proliferation and cytotoxicity of peptides (stimulating index); format: cell-based, mouse; details: RAW264.7, MTT, 24 h, across 12.5, 25, 50 and 100 μg/mL peptide
Procedure: The MTT colorimetry method was used to determine the effects of original rice peptides and replacement peptides on RAW264.7 cell proliferation, and the toxic effects of these peptides on the cells. RAW264.7 cells were cultured in DMEM high glucose medium containing 10% (v/v) fetal bovine serum (FBS) and 1% (v/v) of penicillin–streptomycin solution (10,000 U/mL of penicillin and 10,000 U/mL of streptomycin). The cells were cultured at 37 °C in a humidified incubator (Boxun Co., Ltd., Shanghai, China) with 5% (v/v) CO2, with sub-culturing every three days.
Briefly, pre-cultured, logarithmic phase cells were inoculated into 96-well plates (with six double wells for each group), at a cell density of 6.0 × 10^4 cells/mL. Then, 200 μL of cell suspension was added into the wells and incubated for 6 h to make the cells adhere to the well wall. After that, different concentrations of samples (12.5, 25, 50, and 100 μg/mL) were added to four of the six corresponding wells for each group. Sterile water and immunoglobulin G (IgG) were used as the blank and positive control groups, respectively. The samples were subsequently incubated in a humidified incubator with 5% (v/v) CO2 at 37 °C for 24 h, and then 20 μL of MTT solution (5 mg/mL) was added to each well and incubated for a further 4 h. Next, the culture medium supernatant was gently removed from the wells, and 150 μL of dimethyl sulfoxide (DMSO) solution was added into the wells, which were shaken for 10 min at room temperature to ensure that the […] was fully dissolved. Then, the solution was immediately detected at 490 nm. The cytotoxicity was evaluated based on the following stimulating index (SI) value Formula (3):(3) SI=OD1/OD0 where OD1 is the absorbance value at 490 nm of the sample group or the IgG group, and OD0 is the absorbance value at 490 nm of the blank group.

Row | Substance | SI value (stimulating index, OD sample/OD blank)
1 | LHKFR [LR5] | greater than 1.0
2 | AHKFR [AR5] | greater than 1.0
3 | LHKAR [LAR5] | greater than 1.0
4 | YGLAPR [YLR6] | greater than 1.0
5 | YGAYPR [YAR6] | greater than 1.0
6 | YGLYPR [YR6] | greater than 1.0
7 | AGLYPR [AGR6] | greater than 1.0
8 | YGLYAR [YGR6] | greater than 1.0
